Results reported in PMC6901289 (Journal of medicinal chemistry, 2019).
“Also recorded” adds a separate entry of the source.

Key:
[1] = system: α-tubulin acetylation in HCT116 cells; assay: α-tubulin acetylation by immunofluorescence; type: cell-based, human; conditions: six hours
[2] = system: p53 acetylation in HCT116 cells; assay: p53 K382 acetylation by western blot; conditions: for acetyl p53 (K382) levels: HCT116, 25 μM inhibitor with 400 nM TSA, 6 hours; for dose dependence of acetyl p53 levels: HCT116, 10–50 μM inhibitor with Trichostatin A
HCT116 cells = assay: Soft agar colony formation assay; type: cell-based, human; conditions: at a concentration of 10 μM and greater
HCT116 xenograft = HCT116 xenograft mice study; type: in vivo, NSG mice; conditions: 25 mg/kg intraperitoneal, every day
[3] = Mouse body weight in xenograft study; type: in vivo, NSG mice; conditions: treatment groups of xenograft study, intraperitoneal
SIRT2 [4] = biological target: T1, SIRT2 (Homo sapiens, UniProt Q8IXJ6); assay: LC-MS detection of covalent intermediate with NAD+ in the presence of SIRT2; type: biochemical; conditions: incubated with an excess of SIRT2 and NAD+
T1 sequence (Q8IXJ6 1-389): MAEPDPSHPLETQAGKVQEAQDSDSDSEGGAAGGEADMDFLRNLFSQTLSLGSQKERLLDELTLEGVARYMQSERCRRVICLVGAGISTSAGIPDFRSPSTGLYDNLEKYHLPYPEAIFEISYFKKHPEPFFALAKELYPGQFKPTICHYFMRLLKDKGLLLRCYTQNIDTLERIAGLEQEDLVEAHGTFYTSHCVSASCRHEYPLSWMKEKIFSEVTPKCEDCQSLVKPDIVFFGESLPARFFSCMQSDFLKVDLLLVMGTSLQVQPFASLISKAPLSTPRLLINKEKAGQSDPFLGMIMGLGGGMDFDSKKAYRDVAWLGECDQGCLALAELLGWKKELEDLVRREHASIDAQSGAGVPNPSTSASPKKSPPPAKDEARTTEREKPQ

SIRT1 = biological target: T2, SIRT1 (Homo sapiens, UniProt Q96EB6); assay: Enzyme IC50 assay, acetyl H3K9 peptide, liquid chromatography; type: biochemical; conditions: in vitro
T2 sequence (Q96EB6 1-747): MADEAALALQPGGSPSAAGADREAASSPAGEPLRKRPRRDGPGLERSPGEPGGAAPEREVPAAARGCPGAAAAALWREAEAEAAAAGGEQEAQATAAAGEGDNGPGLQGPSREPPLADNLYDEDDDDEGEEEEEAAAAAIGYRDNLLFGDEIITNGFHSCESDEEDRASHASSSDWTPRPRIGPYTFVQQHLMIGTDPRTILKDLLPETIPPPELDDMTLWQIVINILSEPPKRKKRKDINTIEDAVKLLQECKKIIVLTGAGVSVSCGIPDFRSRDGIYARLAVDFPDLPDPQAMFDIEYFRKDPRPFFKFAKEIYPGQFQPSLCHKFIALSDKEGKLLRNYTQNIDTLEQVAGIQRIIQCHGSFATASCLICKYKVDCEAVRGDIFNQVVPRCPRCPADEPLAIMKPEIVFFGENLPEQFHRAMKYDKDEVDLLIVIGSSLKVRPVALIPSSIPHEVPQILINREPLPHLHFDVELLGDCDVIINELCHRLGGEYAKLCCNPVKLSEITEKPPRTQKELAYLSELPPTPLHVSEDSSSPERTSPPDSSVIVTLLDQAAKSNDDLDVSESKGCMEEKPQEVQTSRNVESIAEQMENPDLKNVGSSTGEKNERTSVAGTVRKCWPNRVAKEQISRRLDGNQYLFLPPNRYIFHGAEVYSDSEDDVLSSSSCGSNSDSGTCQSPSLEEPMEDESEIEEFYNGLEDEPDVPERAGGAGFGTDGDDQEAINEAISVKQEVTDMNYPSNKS

SIRT2 [5] = biological target: T1, SIRT2; assay: as above; type: biochemical; conditions: relative selectivity for SIRT2 over SIRT1, Table 1

| covalent inhibitor-ADP-ribose intermediate by LC-MS (SIRT2 [4]) | inhibition of SIRT1 deacetylase activity (in words) (SIRT1) | SIRT2/SIRT1 Selectivity (SIRT2 [5]) | Structure (SMILES) | α-tubulin acetylation ([1]; HCT116, 25 μM inhibitor) | α-tubulin acetylation ([1]; HCT116, 50 μM inhibitor) | acetyl p53 (K382) levels [2] | growth of HCT116 cells in soft agar (HCT116 cells) | tumor growth by volume and weight (HCT116 xenograft) | mouse body weight loss [3] | dose dependence of acetyl p53 levels [2] |
| --- | --- | --- | --- | --- | --- | --- | --- | --- | --- | --- |
|  |  |  | CCCNC(=S)NCCCC[C@H](NC(=O)OCc1ccccc1)C(=O)Nc1cccc(O)c1 [Compound C3, Benzyl (S)-(1-((3-hydroxyphenyl)amino)-1-oxo-6-(3-propylthioureido)hexan-2-yl)carbamate] | did not increase the acetylation of α-tubulin | did not increase the acetylation of α-tubulin | did not increase the acetylation of p53 |  |  |  |  |
| detected |  |  | CCCCCCCCNC(=S)NCCCC[C@H](NC(=O)OCc1ccccc1)C(=O)Nc1ccccc1 [AF8, benzyl (S)-(6-(3-octylthioureido)-1-oxo-1-(phenylamino)hexan-2-yl)carbamate] | extensive α-tubulin hyperacetylation; also recorded: increased α-tubulin acetylation | extensive α-tubulin hyperacetylation; also recorded: also increased α-tubulin acetylation | did not increase the levels of acetyl p53; also recorded: did not noticeably increase p53 acetylation | completely inhibited | slightly decreased tumor growth by volume and weight but did not result in a statistically significant difference | No significant weight loss | did not increase acetyl p53 levels in a dose dependent manner |
|  | no inhibition | >1000 | CCCCCCCCCCNC(=S)NCCCC[C@H](NC(=O)OCc1ccccc1)C(=O)Nc1ccccc1 [AF10, Benzyl (S)-(6-(3-decylthioureido)-1-oxo-1-(phenylamino)hexan-2-yl)carbamate] | extensive α-tubulin hyperacetylation; also recorded: increased α-tubulin acetylation | extensive α-tubulin hyperacetylation; also recorded: also increased α-tubulin acetylation | did not increase the levels of acetyl p53; also recorded: did not noticeably increase p53 acetylation | completely inhibited |  | No significant weight loss | very slight increase in acetyl p53 |
|  |  |  | CCCCCCCCCCCCCC(=S)NCCCC[C@H](NC(=O)OCc1ccccc1)C(=O)Nc1ccccc1 [TM, reference compound] | increased α-tubulin acetylation | also increased α-tubulin acetylation | did not increase the levels of acetyl p53 |  |  |  |  |
|  |  |  | CCCCCNC(=S)NCCCC[C@H](NC(=O)OCc1ccccc1)C(=O)Nc1cccc(O)c1 [Compound C5, Benzyl (S)-(1-((3-hydroxyphenyl)amino)-1-oxo-6-(3-pentylthioureido)hexan-2-yl)carbamate] | slightly increased α-tubulin acetylation | increased α-tubulin acetylation; also recorded: more robustly increased acetylation | moderately increased the acetylation of p53; also recorded: moderately increased acetyl p53 levels |  |  |  |  |
|  |  |  | CCCCCCCCCCNC(=S)NCCCC[C@H](NC(=O)OCc1ccccc1)C(=O)Nc1cccc(O)c1 [Compound C10, Benzyl (S)-(6-(3-decylthioureido)-1-((3-hydroxyphenyl)amino)-1-oxohexan-2-yl)carbamate] | more strongly increased α-tubulin acetylation; also recorded: increased α-tubulin acetylation | increased α-tubulin acetylation | moderately increased the acetylation of p53; also recorded: moderately increased acetyl p53 levels |  |  |  | dose dependent increase in acetyl p53 levels; also recorded: dose dependent increase of acetyl p53 |
|  | no inhibition | >1000 | CCCCCCCCCCCCNC(=S)NCCCC[C@H](NC(=O)OCc1ccccc1)C(=O)Nc1ccccc1 [AF12, Benzyl (S)-(6-(3-dodecylthioureido)-1-oxo-1-(phenylamino)hexan-2-yl)carbamate] |  |  |  |  |  |  |  |
